# Patent US7745570B2, “PH dependent adhesive peptides” (Kansas State University Research Foundation, priority 2005, dated 2010)
# Entries after “also recorded” stand apart in the source; their conditions may differ. Where no end group is shown, it is not given here.
# How the values were obtained:
# [1] = Viscosity of peptide solutions, Brookfield viscometer; format: physicochemical; conditions: peptide 4%, 20 rpm, RT
# Description: Viscosity: Viscosity of peptides at different pH was measured in a Brookfield RVDV-III 5^+ viscometer (Middleboro, Mass.). All the measurements were taken at 2.5 minute intervals using 8 mL samples at ambient temperature with a spindle SC4-21 operating at 20 rpm. Five data points were averaged for each reported value.
# [2] = Wimley and White Hydrophobicity Scale; cited from earlier work
# [3] = MALDI mass spectrometry of dried/hot-pressed peptide for hydrolysis of peptide bonds; format: physicochemical; conditions: 4% peptide pH 12, dried at RT or 130° C. without pressure or 130° C. with pressure
# Description: The same K3h9K3 samples used in the FTIR studies were analyzed by matrix assisted, laser desorption mass spectrometry. At elevated pH and temperature, the spontaneous hydrolysis of peptide bonds could occur. Dried samples taken from glass slides treated with 4% peptide solutions at pH 12 and dried at either room temperature or 130° C. without pressure as well as dried at 130° C. with pressure were dissolved in acetonitrile containing matrix and transferred to mass spectral target slides.
# [4] = Circular dichroism at 25° C. to 75° C. (conformational stability); format: physicochemical; conditions: 250 μM, pH 12, 25° C. to 75° C.
# Description: Circular Dichroism Spectra: The data set out in FIG. 4 were collected according to the following protocol. The circular dichroic spectra were recorded on a J-720 (Jasco, Japan) spectropolarimeter with a Neslab RTE-111M circulator using a 1.0 mm quartz cuvette from 260 to 180 nm. The spectra are an average of five scans recorded at a rate of 20 nm/min with a 0.2 nm step interval. For circular dichroism measurements, 1 mL samples of synthetic peptide were prepared with a different pH buffer solution. The following buffers were used: 60 mM glycine, 60 mM NaCl, 40 mM HCl, pH 2.2; 50 mM glycine, 50 mM NaCl, 0.2 mM NaOH, pH 6.8; and 45 mM glycine, 45 mM NaCl, 55 mM NaOH, pH 12. The final peptide concentration was 250 μM. All spectra were corrected by subtracting the baseline of the buffer solution recorded under the same condition. Unless otherwise noted, spectra were recorded at room temperature. The CD absorbances were expressed as the mean residue ellipticity in units of degrees cm^2 dmol^−1. Temperatures were controlled with a refrigerated circulator bath (Neslab RTE-111M). Temperatures were controlled between 25° C. to 75° C.
# [5] = Solubility and ionisation of peptides at the test pH values; format: physicochemical; conditions: for Solubility: aqueous peptide solutions at pH 2.2, 6.8, 12.0
# [6] = modified Wimley-White scale, side chain values; cited from earlier work
compound,measurement,setting,value
EEE-FLIVIGSII-KKK (EEEFLIVIGSIIKKK) [Peptide E3h9K3],Viscosity,[1]; pH 2.2,190 mPa · s
same,Viscosity,[1]; pH 6.8,245 mPa · s
same,Viscosity,[1]; pH 12,20 mPa · s
N[C@@H](CO)C(=O)O [Ser],ΔG for transfer from water to organic phase,[2],0.46 kcal/mol
N[C@@H](Cc1ccccc1)C(=O)O [Phe],ΔG for transfer from water to organic phase,[2],-1.71 kcal/mol
CSCC[C@H](N)C(=O)O [Met],ΔG for transfer from water to organic phase,[2],-0.67 kcal/mol
KKK-FLIVIGSII-KKK (KKKFLIVIGSIIKKK) [Peptide K3h9K3],Peptide integrity (hydrolysis of peptide bonds),[3],intact monomer however no detectable amounts of fragmented peptide
same,Viscosity,[1]; pH 2.2,20 mPa · s
same,Viscosity,[1]; pH 6.8,20 mPa · s
same,Viscosity,[1]; pH 12,290 mPa · s
same,Effect of temperature on CD spectra (conformation),[4],did not alter the CD spectra
HHHFLIVIGSIIHHH [Peptide H3h9H3],Solubility,[5],insoluble at all pH values
"EEEFLIVIGSIIEEE-OH [Peptide E3h9E3, EEE-FLIVIGSII-EEE]",Solubility,[5],insoluble below and somewhat above its pI; also recorded: insoluble at the two lower pH values
same,Viscosity,[1]; pH 12,20 mPa · s
KKK-FLIVIGSII-EEE (KKKFLIVIGSIIEEE) [Peptide K3h9E3],Viscosity,[1]; pH 2.2,210 mPa · s
same,Viscosity,[1]; pH 6.8,305 mPa · s
same,Viscosity,[1]; pH 12,20 mPa · s
NCC(=O)O [Gly],ΔG for transfer from water to organic phase,[2],1.15 kcal/mol
RRRFLIVIGSIIRRR [Peptide R3h9R3],Ionisation state,[5]; pH 12.0,not fully ionized
"C[C@H](N)C(=O)O [Ala, alanine]",ΔGresidue value,[6],-0.5 kcal/mol
same,ΔG for transfer from water to organic phase,[2],0.50 kcal/mol
"CC(C)[C@H](N)C(=O)O [Val, valine]",ΔGresidue value,[6],0.46 kcal/mol
same,ΔG for transfer from water to organic phase,[2],-0.46 kcal/mol
